Experimental data: article PMC12316891, “A bottom-up approach to find lead compounds in expansive chemical spaces” (Communications Chemistry, 2025)
Where two headings read alike, the source gives them in different places.

Columns and labels:
BRD4 (BD1) [1] = biological target: T1, BRD4 (BD1) (Homo sapiens, UniProt O60885); test: Differential scanning fluorimetry (DSF) single-dose thermal shift screening; format: binding; conditions: DSF, compound 10 µM, BRD4 (BD1) 2 µM, n = 3, decimal comma; for ΔTm at 10 µM: read-out: ΔTm ºC at [10 µM]
T1 construct: A pET28 plasmid containing residues 44–168 of BRD4 (BD1), a 6xHis tag, a TEV protease cleavage site; 6xHis (N, cleaved yes); made in house; host or cells: E. coli Rosetta (D3)

His6-BRD4 (BD1) = biological target: T2, His6-BRD4 (BD1) (Homo sapiens, UniProt O60885); test: Surface plasmon resonance (SPR) single-dose screening; format: binding; parameters: key to SPR RESULT: Positive: compounds were considered as SPR hits also when their average signal was further than two standard deviations apart from the average signal of the blank samples (1% DMSO); conditions: for RUs at [10 µM]: SPR, compound 10 µM, 1% DMSO, n = 2, decimal comma; for SPR RESULT: single dose 10 µM, n = 2
T2 construct: A pET28 plasmid containing residues 44–168 of BRD4 (BD1), a 6xHis tag, a TEV protease cleavage site; made in house; host or cells: E. coli Rosetta (D3)

BRD4 (BD1) [2] = biological target: T1, BRD4 (BD1); test: Competitive HTRF TR-FRET binding assay (displacement of acetylated histone H4 peptide)
[3] = 16-point titration 0.1 nM to 10 µM, n = 2, Negative = curve could not be fitted to a sigmoidal curve
[4] = 16-point titration 0.1 nM to 10 µM, n = 2, Negative = curve could not be fitted to a sigmoidal curve, read-out: TR-FRET IC50

| Structure (SMILES) | ΔTm at 10 µM (BRD4 (BD1) [1]) | TR-FRET IC50 (nM) (BRD4 (BD1) [2]; [3]) | RUs at [10 µM] (His6-BRD4 (BD1)) | SPR RESULT (His6-BRD4 (BD1)) | IC50 (BRD4 (BD1) [2]; [4]) | ΔTm ºC at [10 µM] (BRD4 (BD1) [1]) | IC50 (BRD4 (BD1) [2]) |
| --- | --- | --- | --- | --- | --- | --- | --- |
| COC(C)CC(=O)N1CCC(C2(O)CCN(C(=O)c3sc4nnc(C)c(C)c4c3N)C2)CC1 (stereo not shown) [Compound 39, COC(C)CC(=O)N1CCC(CC1)C2(O)CCN(C2)C(=O)C=3SC=4N=NC(C)=C(C)C4C3N] | 1.12 °C |  | 11,34 ± 6,3 RUs | Negative | 0.0789 µM |  |  |
| COc1ccc(-n2c(C)nnc2SCC(=O)NCc2cc(C)nc(C)c2)cc1 [Compound 44, COC=1C=CC(=CC1)N2C(C)=NN=C2SCC(=O)NCC=3C=C(C)N=C(C)C3] | 1.68 °C |  | 17,34 ± 14,82 RUs | Negative | 0.00583 µM |  |  |
| COc1ccc(-n2c(C)nnc2SCC(=O)N2CC3(CCN(C)CC3)C2)cc1 [Compound 45, COC=1C=CC(=CC1)N2C(C)=NN=C2SCC(=O)N3CC4(C3)CCN(C)CC4] | 2.18 °C | Negative | 9,8 ± 3,73 RUs | Negative |  |  |  |
| COc1ccc(-c2cc(NC(=O)C(=O)NC(C)c3nnc4ncccn34)ccc2OC)cc1 (stereo not shown) [Compound 47, COC=1C=CC(=CC1)C=2C=C(NC(=O)C(=O)NC(C)C3=NN=C4N=CC=CN34)C=CC2OC] | 1.25 °C |  | 25,41 ± 18,52 RUs | Negative | 0.256 µM |  |  |
| COc1ccc(-n2c(C)nnc2SCC(=O)N(c2ccccc2)C2CC2)cc1 [Compound 48, COC=1C=CC(=CC1)N2C(C)=NN=C2SCC(=O)N(C3CC3)C=4C=CC=CC4] | 2.35 °C |  | 4,63 ± 0,03 RUs | Negative | 0.0532 µM |  |  |
| COc1ccc(-n2c(C)nnc2SCC(=O)NC2CCC3(CNC3)C2)cc1 (stereo not shown) [Compound 49, COC=1C=CC(=CC1)N2C(C)=NN=C2SCC(=O)NC3CCC4(CNC4)C3] | 2.73 °C |  | 17,72 ± 5,47 RUs | Negative | 0.105 µM |  |  |
| CNC(=O)c1ccc(-n2nc(Cn3cccn3)nc2-c2cn(C)c(=O)c3ccccc23)cc1 [Compound 50, CNC(=O)C=1C=CC(=CC1)N2N=C(CN3C=CC=N3)N=C2C4=CN(C)C(=O)C=5C=CC=CC45] | 2.29 °C |  | 10,43 ± 9,29 RUs | Negative | 1.13 µM |  |  |
| CN(C)S(=O)(=O)c1ccc(-n2nc(-c3cccnc3)nc2-c2cn(C)c(=O)c3ccccc23)cc1 [Compound 51, CN(C)S(=O)(=O)C=1C=CC(=CC1)N2N=C(N=C2C3=CN(C)C(=O)C=4C=CC=CC34)C=5C=CC=NC5] | 3.61 °C |  | 29,75 ± 5,31 RUs | Positive | 0.0393 µM |  |  |
| COc1ccc(-n2c(C)nnc2SCC(=O)NC2CCN(C(=O)c3cc(Cl)sc3Cl)CC2C)cc1 (stereo not shown) [Compound 52, COC=1C=CC(=CC1)N2C(C)=NN=C2SCC(=O)NC3CCN(CC3C)C(=O)C=4C=C(Cl)SC4Cl] | -0.23 °C |  | 31,14 ± 2,8 RUs | Positive | 0.266 µM |  |  |
| COc1ccc(-n2c(C)nnc2SCC(=O)Nc2ccc(C)c(Cl)c2Cl)cc1 [Compound 55, COC=1C=CC(=CC1)N2C(C)=NN=C2SCC(=O)NC=3C=CC(C)=C(Cl)C3Cl] |  |  | 11,56 ± 1,14 RUs | Positive |  | 3,66 ± 0,12 ºC | 1.02 µM |
| COC1(CNC(=O)C2=C(Cl)CCCC2)CCN(C(=O)c2sc3nnc(C)c(C)c3c2N)CC1 [Compound 57, COC1(CNC(=O)C2=C(Cl)CCCC2)CCN(CC1)C(=O)C=3SC=4N=NC(C)=C(C)C4C3N] | 0.48 °C | Negative | 26,22 ± 6,56 RUs | Positive |  |  |  |

Now from value to compound, other results behind:

| ΔTm at 10 µM (BRD4 (BD1) [1]) | TR-FRET IC50 (nM) (BRD4 (BD1) [2]; [3]) | Structure (SMILES) | RUs at [10 µM] (His6-BRD4 (BD1)) | SPR RESULT (His6-BRD4 (BD1)) | IC50 (BRD4 (BD1) [2]; [4]) | ΔTm ºC at [10 µM] (BRD4 (BD1) [1]) | IC50 (BRD4 (BD1) [2]) |
| --- | --- | --- | --- | --- | --- | --- | --- |
| 0.25 °C | Negative | COc1ccc(CNc2ccc3ccn(C)c(=O)c3c2)cc1OCC(C)C [Compound 38, COC=1C=CC(CNC=2C=CC=3C=CN(C)C(=O)C3C2)=CC1OCC(C)C] | 30,29 ± 13,03 RUs | Negative |  |  |  |
| 1.13 °C |  | CCCc1c(C(=O)N2CCOC(CNC(=O)c3cc(C)ccn3)C2)[nH]c(C)c1C(C)=O (stereo not shown) [Compound 40, CCCC1=C(NC(C)=C1C(=O)C)C(=O)N2CCOC(CNC(=O)C=3C=C(C)C=CN3)C2] | 9,46 ± 0,53 RUs | Positive | 0.372 µM |  |  |
| 1.7 °C | Negative | Cc1nnnn1-c1cc(F)cc(C(=O)N2CCN(C(=O)C(=O)NCC3CC3)C(C(C)C)C2)c1 (stereo not shown) [Compound 41, CC(C)C1CN(CCN1C(=O)C(=O)NCC2CC2)C(=O)C=3C=C(F)C=C(C3)N4N=NN=C4C] | 1,13 ± 7,64 RUs | Negative |  |  |  |
| 1.04 °C |  | Cn1cc(C(=O)Nc2ccc(OCc3cnccn3)cc2)c2ccccc2c1=O [Compound 42, CN1C=C(C(=O)NC=2C=CC(OCC=3C=NC=CN3)=CC2)C=4C=CC=CC4C1=O] | 34,2 ± 10,95 RUs | Positive | 0.169 µM |  |  |
| 1.99 °C |  | COc1cccc(-n2c(C)nnc2SCC(=O)Nc2ccc(C(F)F)cc2)c1 [Compound 43, COC=1C=CC=C(C1)N2C(C)=NN=C2SCC(=O)NC=3C=CC(=CC3)C(F)F] | 32,1 ± 9,99 RUs | Positive | 1.59 µM |  |  |
| 2.47 °C |  | CC(NS(=O)(=O)c1cccc(-c2nnnn2C)c1)C1CCN(Cc2ccccc2)C1 (stereo not shown) [Compound 46, CC(NS(=O)(=O)C=1C=CC=C(C1)C2=NN=NN2C)C3CCN(CC=4C=CC=CC4)C3] | 19,71 ± 0,01 RUs | Positive | 0.24 µM |  |  |
| 1.09 °C |  | CN(C)C(=O)Sc1cc(NC(=O)c2cn(C)c(=O)c3ccccc23)ccc1Cl [Compound 53, CN(C)C(=O)SC=1C=C(NC(=O)C2=CN(C)C(=O)C=3C=CC=CC23)C=CC1Cl] | 28,62 ± 5,34 RUs | Positive | 1.04 µM |  |  |
| 2.91 °C |  | CCCc1c(C(=O)N2CCC(Cc3cn(C4CC4)nn3)CC2)[nH]c(C)c1C(C)=O [Compound 54, CCCC1=C(NC(C)=C1C(=O)C)C(=O)N2CCC(CC3=CN(N=N3)C4CC4)CC2] | 17,03 ± 5,1 RUs | Negative | 0.277 µM |  |  |
| 3.79 °C |  | CCn1nnc2cc(C(=O)N3CCC(c4nnc(CNC(=O)c5ccncn5)s4)CC3)ccc21 [Compound 56, CCN1N=NC=2C=C(C=CC12)C(=O)N3CCC(CC3)C4=NN=C(CNC(=O)C=5C=CN=CN5)S4] | 10,07 ± 8,75 RUs | Negative | 0.722 µM |  |  |
| 2.28 °C |  | COc1cccc(-n2nc(-c3cscn3)nc2-c2cn(C)c(=O)c3ccccc23)c1 [Compound 58, COC=1C=CC=C(C1)N2N=C(N=C2C3=CN(C)C(=O)C=4C=CC=CC34)C5=CSC=N5] | 75,54 ± 39,86 RUs | Negative | 0.511 µM |  |  |
| 4.12 °C | Negative | Cc1nnc2sc(C(=O)N(C)C3CN(C(=O)CCC(C)N(C)C)CC34CC4)c(N)c2c1C (stereo not shown) [Compound 59, CC(CCC(=O)N1CC(N(C)C(=O)C=2SC=3N=NC(C)=C(C)C3C2N)C4(CC4)C1)N(C)C] | 13,73 ± 9,32 RUs | Negative |  |  |  |
